These compounds were tested against T1, wild-type FLT3 phosphorylation in Baf3 FLT3 cells (Homo sapiens, UniProt P36888) (assay: Cell-based FLT3 receptor ELISA). Conditions: FLT ligand-induced FLT3 phosphorylation.
T1 construct: host or cells: Baf3 (murine B cell lymphoma line)
T1 sequence (P36888 27-993): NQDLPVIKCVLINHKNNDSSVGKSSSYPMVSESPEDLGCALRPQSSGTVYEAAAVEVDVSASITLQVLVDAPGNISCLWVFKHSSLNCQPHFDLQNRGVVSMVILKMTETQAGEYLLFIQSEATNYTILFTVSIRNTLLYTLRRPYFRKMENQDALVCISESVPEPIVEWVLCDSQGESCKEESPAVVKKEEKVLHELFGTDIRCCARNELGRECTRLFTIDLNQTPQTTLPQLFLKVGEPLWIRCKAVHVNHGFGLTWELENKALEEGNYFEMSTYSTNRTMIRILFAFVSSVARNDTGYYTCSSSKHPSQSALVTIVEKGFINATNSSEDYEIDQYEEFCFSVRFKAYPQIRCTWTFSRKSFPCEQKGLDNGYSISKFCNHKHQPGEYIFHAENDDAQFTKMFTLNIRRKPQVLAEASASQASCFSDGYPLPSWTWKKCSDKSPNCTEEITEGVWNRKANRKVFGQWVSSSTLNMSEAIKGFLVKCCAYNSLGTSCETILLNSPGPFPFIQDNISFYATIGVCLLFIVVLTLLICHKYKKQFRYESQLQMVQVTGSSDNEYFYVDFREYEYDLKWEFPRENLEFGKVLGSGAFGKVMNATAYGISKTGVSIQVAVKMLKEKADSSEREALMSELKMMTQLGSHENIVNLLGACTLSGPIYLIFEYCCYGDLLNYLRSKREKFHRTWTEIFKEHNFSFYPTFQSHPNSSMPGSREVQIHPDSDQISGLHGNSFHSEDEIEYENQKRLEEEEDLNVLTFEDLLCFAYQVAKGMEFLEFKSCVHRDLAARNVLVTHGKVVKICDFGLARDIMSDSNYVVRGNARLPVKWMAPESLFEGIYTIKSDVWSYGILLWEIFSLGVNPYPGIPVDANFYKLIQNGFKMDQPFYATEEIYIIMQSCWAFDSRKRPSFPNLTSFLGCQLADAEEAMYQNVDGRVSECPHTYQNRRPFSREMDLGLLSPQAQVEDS
Method in brief: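 Baf3 cells stably expressing wild-type human FLT3 were starved 16 h in 0.5% serum with 0.01 ng/mL IL-3, given compound for 1 h, then stimulated with 100 ng/mL FLT ligand for 10 min at 37 °C. Lysates were captured on anti-FLT3 plates and probed with HRP anti-phosphotyrosine (4G10), read by chemiluminescence. IC50 came from sigmoidal variable-slope fits of triplicates.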

| IC50 [nM] | SMILES |
| --- | --- |
| 43 | CC(C)c1ccc(NC(=O)OC2CCN(c3ncnc4ccc(I)cc34)C2)cc1 (stereo not drawn) [Compound 20, (4-Isopropyl-phenyl)-carbamic acid 1-(6-iodo-quinazolin-4-yl)-pyrrolidin-3-yl ester] |
| 1300 | COc1cc2ncnc(N3CCC(N(C)C(=O)Nc4ccc(OC(C)C)cc4)C3)c2cc1OC (stereo not drawn) [Compound 36, 1-[1-(6,7-Dimethoxy-quinazolin-4-yl)-pyrrolidin-3-yl]-3-(4-isopropoxy-phenyl)-1-methyl-urea] |
| 320 | COc1cc2ncnc(N3CCC(OC(=O)Nc4ccc(OC(C)C)cc4)C3)c2cc1OC (stereo not drawn) [Compound 15, (4-Isopropoxy-phenyl)-carbamic acid 1-(6,7-dimethoxy-quinazolin-4-yl)-pyrrolidin-3-yl ester] |
